The results in this text go back to patent publication US10766879B2, “Pyrimidine derivatives as kinase inhibitors and their therapeutical applications” (NantBioScience, Inc., priority 2015, dated 2020).

One test addresses T1, c-Src kinase (Homo sapiens, UniProt P12931).
T1 construct: purchased Millipore (KinaseProfiler Service)
In words: KinaseProfiler kinase inhibition assay, c-Src. Format: biochemical. The following applies: 1 μM compound; read-out: % Inhibition @1 μM cSrc.

The target in another test is T2, Tie2 (Homo sapiens, UniProt Q02763).
T2 construct: purchased Millipore (KinaseProfiler Service)
In words: KinaseProfiler kinase inhibition assay, Tie2. To be noted: 1 μM compound. Type of test: biochemical.

For a further test, the target named is T3, Alk kinase (Homo sapiens, UniProt Q9UM73).
T3 construct: purchased Millipore (KinaseProfiler Service)
The test can be described thus: KinaseProfiler kinase inhibition assay, Alk. To be noted: 1 μM compound. Type of test: biochemical.

The target in a further test is T4, KDR kinase (Homo sapiens, UniProt P35968).
T4 construct: purchased Millipore (KinaseProfiler Service)
The test can be described thus: KinaseProfiler kinase inhibition assay, KDR. Type of test: biochemical. To be noted: 1 μM compound.

A further test addresses T5, phospho-FGFR2 (Homo sapiens, UniProt P21802).
T5 construct: endogenous in cells; host or cells: Kato III cells
In words: phospho-FGFR ELISA on Kato III cells. Type of test: cell-based. The following applies: read-out: EC50 (nM) P-FGFR2, Kato III cells. On the procedure: For the phospho-FGFR, the following assay Protocol was used. 25,000 cells are seeded in 90 μl/well in 96-well microplates, which are then placed in a humidified CO2 incubator at 37° C. overnight. 96-well ELISA plates (Mesoscale Discovery) are coated with capture antibody (R&D Systems Duo-Set) at 4 μg/ml, 30 μl/well. The next day, 10 μl/well of 10× concentrated drug is added and the plates are returned to the incubator for […]. ELISA plates are washed using an automated plate washer (BioTek Instruments). After 30 min, cells are inverted and gently tapped to remove excess medium, and immediately placed on ice. 30 μl mPer cell lysis reagent (Thermo Scientific) with protease and phosphatase inhibitors is added/well. After 15 min on ice, lysates are mixed and 30 μl transferred to the ELISA plate. Plates are incubated for 2 hr, washed, and 30 μl/well detection antibody is added. After 1 hr, plates are washed and 30 μl “SulfoTag” (MesoScale Discovery) detection reagent is added. After 1 hr, plates are washed and 150 μl/well read solution is added. Electrochemiluminescence is determined on the Mesoscale Discovery Sector Imager 2000. Data are analyzed using Excel (Microsoft), and EC50 values are determined using Prism (Graphpad).
For orientation: An ELISA detects its analyte on a solid surface through an enzyme-linked reagent.

A further test has as its system KG1a. In words: CellTiterblue viability, 72 hr, KG1a. The following applies: Homo sapiens, KG-1a, KG1a cells. Format: cell-based. In a few lines:
(§1)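 1000 cells per well were seeded and incubated overnight at 37° C in humidified CO2. Drug was added the next day and exposure lasted 72 hr, after which CellTiterblue was added for 3 hr and fluorescence was read. GI50 values were derived from the readings.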
On the technique in general: Resazurin is reduced to fluorescent resorufin, in cell work by metabolically active cells.

The test system of a further test is Kato III. The test can be described thus: CellTiterblue viability, 72 hr, Kato III. Format: cell-based. The following applies: Homo sapiens, Kato III cells. In a few lines: as §1
The next test deals with T6, FGFR1 kinase (Homo sapiens, UniProt P11362).
T6 construct: purchased Millipore (KinaseProfiler Service)
In words: KinaseProfiler kinase inhibition assay, FGFR1. Type of test: biochemical. To be noted: 1 μM compound.

The next test concerns MDA-MB134. In words: CellTiterblue viability, 72 hr, MDA-MB134. Format: cell-based. To be noted: MDA-MB134 cells. On the procedure:
A number of studies were performed to analyze the consequences of tyrosine kinase inhibition in cell lines. To do this, 1000 cells are seeded in 27 μl/well in 384-well microplates, which are then placed in a humidified CO2 incubator at 37° C. overnight. The next day, 3 μl/well of 10× concentrated drug is added and the plates are returned to the incubator for 72 hr. After 72 hr incubation, plates are removed and […] CellTiterblue (Promega) viability reagent is added. Plates are returned to the incubator for 3 hr, after which it is fluorescence measurements are read on the Victor X3 plate reader (Perkin Elmer). Data are analyzed using Excel (Microsoft), and GI50 values are determined using Prism (Graphpad).

In another test the test system is AN3_CA. The test can be described thus: CellTiterblue viability, 72 hr, AN3_CA. Type of test: cell-based. To be noted: Homo sapiens, AN3-CA, AN3_CA cells. In a few lines: as §1
A further test deals with T7, Ret kinase (Homo sapiens, UniProt P07949).
T7 construct: purchased Millipore (KinaseProfiler Service)
In words: KinaseProfiler kinase inhibition assay, Ret. Format: biochemical. The following applies: 1 μM compound.

A further test deals with T8, Abl kinase (Homo sapiens, UniProt P00519).
T8 construct: purchased Millipore (KinaseProfiler Service)
In words: KinaseProfiler kinase inhibition assay, Abl. To be noted: 1 μM compound. Type of test: biochemical.

A further test concerns RT112. In words: CellTiterblue viability, 72 hr, RT112. Type of test: cell-based. The following applies: Homo sapiens, RT-112, RT112 cells. In a few lines: as §1

T7 sequence (P07949 29-1114): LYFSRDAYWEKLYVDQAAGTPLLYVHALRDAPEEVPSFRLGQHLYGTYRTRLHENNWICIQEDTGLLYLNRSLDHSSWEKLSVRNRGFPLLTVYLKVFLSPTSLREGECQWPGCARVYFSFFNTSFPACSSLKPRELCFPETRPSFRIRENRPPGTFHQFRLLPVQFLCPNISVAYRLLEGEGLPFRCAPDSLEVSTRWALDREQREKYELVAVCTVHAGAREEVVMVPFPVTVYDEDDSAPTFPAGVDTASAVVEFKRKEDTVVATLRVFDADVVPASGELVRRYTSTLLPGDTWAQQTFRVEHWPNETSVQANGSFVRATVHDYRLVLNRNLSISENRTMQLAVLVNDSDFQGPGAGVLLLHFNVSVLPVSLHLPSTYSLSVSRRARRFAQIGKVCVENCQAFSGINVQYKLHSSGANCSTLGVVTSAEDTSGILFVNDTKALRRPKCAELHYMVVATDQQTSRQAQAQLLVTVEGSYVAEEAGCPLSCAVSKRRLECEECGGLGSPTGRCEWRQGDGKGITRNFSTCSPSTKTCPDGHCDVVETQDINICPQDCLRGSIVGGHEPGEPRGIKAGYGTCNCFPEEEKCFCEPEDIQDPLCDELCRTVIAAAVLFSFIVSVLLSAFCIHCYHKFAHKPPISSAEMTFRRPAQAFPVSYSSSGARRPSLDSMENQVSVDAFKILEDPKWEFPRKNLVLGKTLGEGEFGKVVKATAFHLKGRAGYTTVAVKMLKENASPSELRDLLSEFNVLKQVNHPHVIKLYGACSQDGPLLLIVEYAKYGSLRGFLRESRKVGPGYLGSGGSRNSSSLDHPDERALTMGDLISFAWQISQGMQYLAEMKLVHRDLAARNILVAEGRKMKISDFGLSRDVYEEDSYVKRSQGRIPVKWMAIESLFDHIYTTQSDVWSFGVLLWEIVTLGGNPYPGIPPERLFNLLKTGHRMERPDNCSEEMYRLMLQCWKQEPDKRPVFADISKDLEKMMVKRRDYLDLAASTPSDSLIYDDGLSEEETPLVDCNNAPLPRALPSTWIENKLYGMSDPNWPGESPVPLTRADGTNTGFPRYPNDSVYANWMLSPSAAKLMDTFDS
T6 sequence (P11362 22-822): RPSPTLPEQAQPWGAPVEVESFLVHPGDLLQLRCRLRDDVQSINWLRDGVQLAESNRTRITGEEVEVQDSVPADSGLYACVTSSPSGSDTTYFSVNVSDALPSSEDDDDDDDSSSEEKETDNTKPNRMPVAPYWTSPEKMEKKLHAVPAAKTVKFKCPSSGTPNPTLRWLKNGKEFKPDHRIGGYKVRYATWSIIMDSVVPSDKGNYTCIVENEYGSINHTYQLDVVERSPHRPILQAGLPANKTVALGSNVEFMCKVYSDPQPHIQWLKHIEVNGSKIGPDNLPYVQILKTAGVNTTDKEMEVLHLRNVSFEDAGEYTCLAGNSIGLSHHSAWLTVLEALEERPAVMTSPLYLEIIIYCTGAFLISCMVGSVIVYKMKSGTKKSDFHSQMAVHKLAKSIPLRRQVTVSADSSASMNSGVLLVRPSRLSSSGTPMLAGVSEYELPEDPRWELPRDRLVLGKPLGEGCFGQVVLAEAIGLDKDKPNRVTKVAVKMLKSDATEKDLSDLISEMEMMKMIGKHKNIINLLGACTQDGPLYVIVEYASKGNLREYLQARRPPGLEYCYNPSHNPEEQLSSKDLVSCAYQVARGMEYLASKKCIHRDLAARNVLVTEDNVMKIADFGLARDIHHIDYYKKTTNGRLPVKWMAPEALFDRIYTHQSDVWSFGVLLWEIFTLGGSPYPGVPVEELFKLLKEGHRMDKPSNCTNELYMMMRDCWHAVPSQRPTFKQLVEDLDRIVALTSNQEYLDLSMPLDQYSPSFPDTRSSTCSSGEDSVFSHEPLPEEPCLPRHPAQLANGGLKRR
T1 sequence (P12931 whole entry): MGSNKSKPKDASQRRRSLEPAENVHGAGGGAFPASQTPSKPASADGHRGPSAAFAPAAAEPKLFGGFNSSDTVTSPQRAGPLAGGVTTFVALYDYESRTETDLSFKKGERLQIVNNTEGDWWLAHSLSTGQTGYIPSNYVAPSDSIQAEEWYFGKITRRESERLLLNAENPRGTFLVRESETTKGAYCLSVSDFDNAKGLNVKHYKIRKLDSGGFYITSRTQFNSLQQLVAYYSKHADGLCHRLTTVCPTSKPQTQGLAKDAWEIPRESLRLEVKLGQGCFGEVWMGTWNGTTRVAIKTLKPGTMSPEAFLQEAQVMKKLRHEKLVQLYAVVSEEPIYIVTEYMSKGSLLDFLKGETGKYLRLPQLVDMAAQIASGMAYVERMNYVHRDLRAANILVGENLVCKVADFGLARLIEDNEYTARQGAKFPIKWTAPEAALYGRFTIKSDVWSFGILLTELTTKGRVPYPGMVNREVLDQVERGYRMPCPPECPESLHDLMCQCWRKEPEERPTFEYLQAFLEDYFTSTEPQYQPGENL
T2 sequence (Q02763 23-1124): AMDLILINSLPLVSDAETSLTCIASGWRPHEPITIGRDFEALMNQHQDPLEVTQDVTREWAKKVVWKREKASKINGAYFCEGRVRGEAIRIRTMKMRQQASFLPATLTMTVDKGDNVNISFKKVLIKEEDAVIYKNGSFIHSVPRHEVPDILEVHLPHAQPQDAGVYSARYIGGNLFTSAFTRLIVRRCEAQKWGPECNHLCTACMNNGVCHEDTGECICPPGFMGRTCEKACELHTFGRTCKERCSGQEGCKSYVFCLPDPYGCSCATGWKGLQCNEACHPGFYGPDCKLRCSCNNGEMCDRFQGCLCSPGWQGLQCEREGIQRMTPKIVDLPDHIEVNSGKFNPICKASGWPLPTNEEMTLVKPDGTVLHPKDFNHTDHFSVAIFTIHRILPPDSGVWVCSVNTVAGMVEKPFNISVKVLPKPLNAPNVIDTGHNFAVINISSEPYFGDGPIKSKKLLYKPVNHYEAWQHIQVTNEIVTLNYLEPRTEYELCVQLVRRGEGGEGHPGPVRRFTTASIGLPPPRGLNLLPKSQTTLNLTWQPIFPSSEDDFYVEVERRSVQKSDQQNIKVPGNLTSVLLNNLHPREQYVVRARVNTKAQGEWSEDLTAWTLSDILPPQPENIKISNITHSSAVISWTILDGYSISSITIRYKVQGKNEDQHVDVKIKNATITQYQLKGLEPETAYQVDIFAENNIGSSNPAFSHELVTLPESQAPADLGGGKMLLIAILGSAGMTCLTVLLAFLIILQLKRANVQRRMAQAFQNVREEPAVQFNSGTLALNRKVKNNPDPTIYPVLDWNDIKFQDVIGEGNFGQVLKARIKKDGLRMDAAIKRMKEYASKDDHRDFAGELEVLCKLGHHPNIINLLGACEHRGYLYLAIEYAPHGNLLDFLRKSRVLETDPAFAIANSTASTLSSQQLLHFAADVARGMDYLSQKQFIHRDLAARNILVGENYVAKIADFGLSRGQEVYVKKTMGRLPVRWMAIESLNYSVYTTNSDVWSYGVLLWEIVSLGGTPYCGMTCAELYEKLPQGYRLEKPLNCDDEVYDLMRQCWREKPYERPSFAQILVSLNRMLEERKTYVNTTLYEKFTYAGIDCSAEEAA
T3 sequence (Q9UM73 19-1620): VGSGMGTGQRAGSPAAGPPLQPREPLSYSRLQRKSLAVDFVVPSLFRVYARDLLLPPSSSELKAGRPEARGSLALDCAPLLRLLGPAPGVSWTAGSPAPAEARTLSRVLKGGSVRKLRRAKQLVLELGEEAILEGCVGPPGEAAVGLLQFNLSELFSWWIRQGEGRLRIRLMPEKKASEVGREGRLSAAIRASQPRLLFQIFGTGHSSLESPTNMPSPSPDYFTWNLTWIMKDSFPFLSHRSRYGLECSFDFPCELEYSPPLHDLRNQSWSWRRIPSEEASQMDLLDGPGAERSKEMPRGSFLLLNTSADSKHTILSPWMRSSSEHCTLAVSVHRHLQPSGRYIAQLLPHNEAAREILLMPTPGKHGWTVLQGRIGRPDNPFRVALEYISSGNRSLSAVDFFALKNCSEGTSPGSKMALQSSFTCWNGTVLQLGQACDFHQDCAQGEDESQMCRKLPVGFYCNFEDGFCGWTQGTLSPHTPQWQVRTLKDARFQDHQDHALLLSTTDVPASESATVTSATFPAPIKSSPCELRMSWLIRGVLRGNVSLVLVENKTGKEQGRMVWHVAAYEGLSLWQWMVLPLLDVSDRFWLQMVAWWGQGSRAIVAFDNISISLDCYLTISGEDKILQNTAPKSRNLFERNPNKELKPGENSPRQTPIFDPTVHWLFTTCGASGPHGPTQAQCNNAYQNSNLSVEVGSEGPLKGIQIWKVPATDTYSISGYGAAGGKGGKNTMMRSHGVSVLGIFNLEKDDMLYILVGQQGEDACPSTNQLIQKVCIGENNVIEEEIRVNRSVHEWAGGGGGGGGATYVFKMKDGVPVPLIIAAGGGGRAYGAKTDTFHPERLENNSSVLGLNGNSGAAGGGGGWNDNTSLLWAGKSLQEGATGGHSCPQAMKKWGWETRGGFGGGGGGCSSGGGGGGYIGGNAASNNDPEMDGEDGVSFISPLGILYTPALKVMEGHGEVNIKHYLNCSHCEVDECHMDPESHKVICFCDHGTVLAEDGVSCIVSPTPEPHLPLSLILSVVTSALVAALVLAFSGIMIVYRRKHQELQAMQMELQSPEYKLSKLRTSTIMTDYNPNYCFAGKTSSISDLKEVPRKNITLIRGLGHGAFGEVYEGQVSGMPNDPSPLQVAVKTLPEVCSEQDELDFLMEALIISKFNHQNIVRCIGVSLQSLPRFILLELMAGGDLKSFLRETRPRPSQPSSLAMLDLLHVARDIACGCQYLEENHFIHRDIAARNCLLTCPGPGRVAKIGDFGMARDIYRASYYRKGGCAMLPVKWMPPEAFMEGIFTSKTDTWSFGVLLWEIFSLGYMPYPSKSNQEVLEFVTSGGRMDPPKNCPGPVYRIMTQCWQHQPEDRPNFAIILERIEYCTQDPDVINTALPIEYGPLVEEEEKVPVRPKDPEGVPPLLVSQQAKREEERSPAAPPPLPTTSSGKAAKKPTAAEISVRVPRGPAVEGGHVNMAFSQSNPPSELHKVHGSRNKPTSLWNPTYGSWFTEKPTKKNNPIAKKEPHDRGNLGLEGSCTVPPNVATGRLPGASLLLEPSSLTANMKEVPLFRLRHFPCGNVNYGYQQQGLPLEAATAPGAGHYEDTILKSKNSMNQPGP

For `Cc1cc2c(F)c(Oc3ncnc(Nc4cc(C5CC5)n[nH]4)c3F)ccc2[nH]1` [Compound 32, N-(3-cyclopropyl-1H-pyrazol-5-yl)-5-fluoro-6-((4-fluoro-2-methyl-1H-indol-5-yl)oxy) pyrimidin-4-amine], the inhibition – broadly, the change of the read-out against control, counted positive when it falls – at 1 µM is -7% at c-Src kinase; -9% against Tie2; -21% on Alk kinase; 54% at KDR kinase; 40% at FGFR1 kinase; -33% at Ret kinase. The inhibition at 1 µM against Abl kinase stood at 0%. The concentration for a half-maximal effect (EC50) (in general, the concentration giving half of the maximal effect) on phospho-FGFR2 is more than 500 nM. Moreover, the GI50 (in general, the concentration giving 50% growth inhibition) in the test with KG1a was more than 500 nM; with Kato III, more than 500 nM; with MDA-MB134 it was 138 nM; in the test with AN3_CA it was more than 500 nM; in the test on RT112, more than 500 nM.
As to `CCN1CCN(c2ccc(Nc3cc(Oc4cc(F)c5[nH]c(C)cc5c4F)ncn3)cc2)CC1` [Compound 49], the inhibition at 1 µM is 74% at c-Src kinase; 69% against Tie2; 69% at Alk kinase; 96% against KDR kinase; 99% at FGFR1 kinase; 53% at Ret kinase. Also, at Abl kinase, the inhibition at 1 µM is 68%. Further, the EC50 at phospho-FGFR2 was 75 nM. For the same compound, the GI50 was 60 nM in the test with KG1a; 207 nM with Kato III; 56 nM in the test with MDA-MB134; more than 500 nM with AN3_CA; more than 500 nM with RT112.
Turning to `CCN1CCN(c2ccc(Nc3ncnc(Oc4ccc5[nH]c(C)cc5c4F)c3C#N)cc2)CC1` [Compound 53], the inhibition at 1 µM was 10% at c-Src kinase; 5% against Tie2; 49% against Alk kinase; 98% against KDR kinase; 100% against FGFR1 kinase; -25% against Ret kinase. The inhibition at 1 µM against Abl kinase worked out at 11%. Further, the EC50 at phospho-FGFR2 was 18 nM. In addition, the 50% growth inhibitory concentration (GI50) in the test with KG1a was 10 nM; with Kato III it was 34 nM; in the test with MDA-MB134 it was 5 nM; in the test on AN3_CA, more than 500 nM; in the test with RT112, more than 500 nM.
Take `CCN1CCN(c2ccc(Nc3ncnc(Oc4ccc5[nH]c(C)cc5c4F)c3F)cc2)CC1` [Example 25]: the inhibition at 1 µM on c-Src kinase was 11%; against Tie2, 0%; against Alk kinase, 69%; on KDR kinase it was 95%; on FGFR1 kinase, 96%; against Ret kinase, -11%. In addition, on Abl kinase, the inhibition at 1 µM stood at 7%. At phospho-FGFR2, the concentration for a half-maximal effect (EC50) was more than 100 nM. For the same compound, the concentration for 50% growth inhibition (GI50) was more than 100 nM with KG1a, more than 500 nM in the test on Kato III, more than 500 nM in the test on AN3_CA and more than 100 nM in the test on RT112.
